Reference: ChEMBL document CHEMBL4507292 (2021)

What was measured:
[1] = target: Ephrin type-B receptor 2 (Homo sapiens) (UniProt P29323); settings: Compound concentration 1000.0 nM
[2] = target: Sodium-dependent dopamine transporter (Homo sapiens, UniProt Q01959); settings: Compound concentration 10.0 uM
[3] = target: Phosphatidylinositol 4-phosphate 3-kinase C2 domain-containing subunit beta (Homo sapiens) (UniProt O00750); settings: Compound concentration 1000.0 nM
D(1B) dopamine receptor = D(1B) dopamine receptor (Homo sapiens, UniProt P21918); assay: GPCRScan assay: inhibition of D5; parameters: radioligand conc. used [nm] 2.0 – 3.0, parental cells HEKT
[4] = target: Dual specificity protein kinase CLK4 (Homo sapiens) (UniProt Q9HAZ1); settings: Compound concentration 1000.0 nM
[5] = target: Ribosomal protein S6 kinase alpha-5 (Homo sapiens) (UniProt O75582); settings: Compound concentration 1000.0 nM
[6] = target: Calcium/calmodulin-dependent protein kinase type II subunit beta (Homo sapiens) (UniProt Q13554); settings: Compound concentration 1000.0 nM
[7] = target: Protein kinase C eta type (Homo sapiens) (UniProt P24723); settings: Compound concentration 1000.0 nM
[8] = target: Casein kinase I isoform alpha-like (Homo sapiens) (UniProt Q8N752); settings: Compound concentration 1000.0 nM
[9] = target: Ribosomal protein S6 kinase alpha-3 (Homo sapiens) (UniProt P51812); settings: Compound concentration 1000.0 nM
[10] = target: Ephrin type-A receptor 8 (Homo sapiens) (UniProt P29322); settings: Compound concentration 1000.0 nM
[11] = target: MAP kinase-activated protein kinase 5 (Homo sapiens) (UniProt Q8IW41); settings: Compound concentration 1000.0 nM
[12] = target: Serine/threonine-protein kinase haspin (Homo sapiens) (UniProt Q8TF76); settings: Compound concentration 1000.0 nM
[13] = target: T1, 5-hydroxytryptamine receptor 2C (Homo sapiens) (UniProt P28335); settings: Compound concentration 10.0 uM
T1 sequence (whole entry): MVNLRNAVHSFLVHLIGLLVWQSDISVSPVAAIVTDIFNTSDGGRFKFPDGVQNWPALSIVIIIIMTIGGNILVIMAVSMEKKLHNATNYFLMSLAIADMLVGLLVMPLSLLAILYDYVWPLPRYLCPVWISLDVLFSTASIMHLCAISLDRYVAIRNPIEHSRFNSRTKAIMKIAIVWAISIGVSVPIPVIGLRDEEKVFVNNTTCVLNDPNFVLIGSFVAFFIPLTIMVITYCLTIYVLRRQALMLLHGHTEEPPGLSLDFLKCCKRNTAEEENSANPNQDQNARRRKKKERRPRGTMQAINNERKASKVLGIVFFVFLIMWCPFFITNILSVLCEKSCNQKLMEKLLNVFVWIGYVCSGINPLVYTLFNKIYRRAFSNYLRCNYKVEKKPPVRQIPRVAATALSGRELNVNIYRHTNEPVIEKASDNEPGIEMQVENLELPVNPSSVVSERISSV

[14] = target: Mitogen-activated protein kinase kinase kinase 11 (Homo sapiens) (UniProt Q16584); settings: Compound concentration 1000.0 nM
[15] = target: Beta-2 adrenergic receptor (Homo sapiens) (UniProt P07550); settings: Compound concentration 10.0 uM
[16] = target: Serine/threonine-protein kinase PAK 4 (Homo sapiens) (UniProt O96013); settings: Compound concentration 1000.0 nM
[17] = target: Tyrosine-protein kinase Mer (Homo sapiens) (UniProt Q12866); settings: Compound concentration 1000.0 nM
[18] = test system: ALK tyrosine kinase receptor (Homo sapiens), Q9UM73 [C1156Y]; settings: Compound concentration 1000.0 nM
[19] = target: Alpha-1B adrenergic receptor (Homo sapiens) (UniProt P35368); settings: Compound concentration 10.0 uM
[20] = target: Mitogen-activated protein kinase 9 (Homo sapiens) (UniProt P45984); settings: Compound concentration 1000.0 nM
[21] = test system: Tyrosine-protein kinase ABL1 (Homo sapiens), P00519 [F317L]; settings: Compound concentration 1000.0 nM
[22] = target: Serine/threonine-protein kinase RIO1 (Homo sapiens) (UniProt Q9BRS2); settings: Compound concentration 1000.0 nM
[23] = target: Dual specificity mitogen-activated protein kinase kinase 5 (Homo sapiens) (UniProt Q13163); settings: Compound concentration 1000.0 nM
[24] = target: Interleukin-1 receptor-associated kinase 3 (Homo sapiens) (UniProt Q9Y616); settings: Compound concentration 1000.0 nM
[25] = target: Inhibitor of nuclear factor kappa-B kinase subunit alpha (Homo sapiens) (UniProt O15111); settings: Compound concentration 1000.0 nM
[26] = target: Histamine H3 receptor (Homo sapiens) (UniProt Q9Y5N1); settings: Compound concentration 10.0 uM
[27] = target: Myosin light chain kinase (Homo sapiens) (UniProt Q32MK0); settings: Compound concentration 1000.0 nM
[28] = target: Mitogen-activated protein kinase kinase kinase 3 (Homo sapiens) (UniProt Q99759); settings: Compound concentration 1000.0 nM
[29] = test system: eIF-2-alpha kinase GCN2 (Homo sapiens), Q9P2K8 [S808G]; settings: Compound concentration 1000.0 nM
[30] = target: Casein kinase II subunit alpha' (Homo sapiens) (UniProt P19784); settings: Compound concentration 1000.0 nM
[31] = target: Receptor tyrosine-protein kinase erbB-3 (Homo sapiens) (UniProt P21860); settings: Compound concentration 1000.0 nM
[32] = target: Serine/threonine-protein kinase pim-1 (Homo sapiens) (UniProt P11309); settings: Compound concentration 1000.0 nM
[33] = target: Beta-1 adrenergic receptor (Homo sapiens) (UniProt P08588); settings: Compound concentration 10.0 uM
[34] = target: Casein kinase I isoform gamma-1 (Homo sapiens) (UniProt Q9HCP0); settings: Compound concentration 1000.0 nM
[35] = target: Cyclin-dependent kinase 2 (Homo sapiens) (UniProt P24941); settings: Compound concentration 1000.0 nM
[36] = target: Serine/threonine-protein kinase Nek4 (Homo sapiens) (UniProt P51957); settings: Compound concentration 1000.0 nM
[37] = target: Ankyrin repeat and protein kinase domain-containing protein 1 (Homo sapiens) (UniProt Q8NFD2); settings: Compound concentration 1000.0 nM
[38] = test system: Phosphatidylinositol 4,5-bisphosphate 3-kinase catalytic subunit alpha isoform (Homo sapiens), P42336 [H1047L]; settings: Compound concentration 1000.0 nM

Chain of Casein kinase I isoform gamma-1 (Homo sapiens) (Q9HCP0 whole entry, looked up, canonical isoform): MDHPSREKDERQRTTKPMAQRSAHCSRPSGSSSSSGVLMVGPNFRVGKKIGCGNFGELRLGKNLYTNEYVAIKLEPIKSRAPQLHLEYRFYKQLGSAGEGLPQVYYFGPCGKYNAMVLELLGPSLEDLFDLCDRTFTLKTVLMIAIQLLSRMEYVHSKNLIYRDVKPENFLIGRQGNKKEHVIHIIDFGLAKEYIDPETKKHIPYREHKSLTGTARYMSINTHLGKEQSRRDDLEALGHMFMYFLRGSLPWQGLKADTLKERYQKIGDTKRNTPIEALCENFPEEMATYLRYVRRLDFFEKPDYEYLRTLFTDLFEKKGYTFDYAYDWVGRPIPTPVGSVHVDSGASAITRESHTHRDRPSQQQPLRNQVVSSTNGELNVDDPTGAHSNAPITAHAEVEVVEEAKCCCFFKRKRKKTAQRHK
Chain of Interleukin-1 receptor-associated kinase 3 (Homo sapiens) (Q9Y616 whole entry): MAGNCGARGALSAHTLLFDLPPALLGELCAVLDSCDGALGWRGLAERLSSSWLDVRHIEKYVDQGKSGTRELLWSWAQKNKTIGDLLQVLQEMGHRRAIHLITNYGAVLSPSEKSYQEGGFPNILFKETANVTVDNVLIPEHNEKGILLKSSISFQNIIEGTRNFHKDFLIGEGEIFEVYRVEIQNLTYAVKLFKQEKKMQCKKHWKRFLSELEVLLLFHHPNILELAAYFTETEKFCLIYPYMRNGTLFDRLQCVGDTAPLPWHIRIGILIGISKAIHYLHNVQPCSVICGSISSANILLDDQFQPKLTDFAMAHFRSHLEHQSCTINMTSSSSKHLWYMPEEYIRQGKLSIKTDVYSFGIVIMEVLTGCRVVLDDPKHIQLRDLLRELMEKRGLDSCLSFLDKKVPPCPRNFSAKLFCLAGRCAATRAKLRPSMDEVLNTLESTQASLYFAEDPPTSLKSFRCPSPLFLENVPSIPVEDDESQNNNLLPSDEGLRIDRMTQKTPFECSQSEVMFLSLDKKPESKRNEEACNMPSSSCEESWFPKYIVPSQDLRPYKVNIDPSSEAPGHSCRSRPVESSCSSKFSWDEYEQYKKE
Chain of Casein kinase II subunit alpha' (Homo sapiens) (P19784 whole entry, looked up): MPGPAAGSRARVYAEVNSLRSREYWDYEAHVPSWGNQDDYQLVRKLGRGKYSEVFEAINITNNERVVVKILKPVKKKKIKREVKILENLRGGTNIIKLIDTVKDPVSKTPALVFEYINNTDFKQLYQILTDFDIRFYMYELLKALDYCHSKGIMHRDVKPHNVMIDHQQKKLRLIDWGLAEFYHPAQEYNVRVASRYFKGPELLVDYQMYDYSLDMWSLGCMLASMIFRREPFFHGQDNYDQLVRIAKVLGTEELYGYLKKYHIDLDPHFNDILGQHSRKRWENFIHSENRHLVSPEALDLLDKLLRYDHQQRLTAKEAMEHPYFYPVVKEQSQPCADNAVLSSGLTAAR
Chain of ALK tyrosine kinase receptor (Homo sapiens), Q9UM73 [C1156Y] (Q9UM73 whole entry C1156Y, looked up): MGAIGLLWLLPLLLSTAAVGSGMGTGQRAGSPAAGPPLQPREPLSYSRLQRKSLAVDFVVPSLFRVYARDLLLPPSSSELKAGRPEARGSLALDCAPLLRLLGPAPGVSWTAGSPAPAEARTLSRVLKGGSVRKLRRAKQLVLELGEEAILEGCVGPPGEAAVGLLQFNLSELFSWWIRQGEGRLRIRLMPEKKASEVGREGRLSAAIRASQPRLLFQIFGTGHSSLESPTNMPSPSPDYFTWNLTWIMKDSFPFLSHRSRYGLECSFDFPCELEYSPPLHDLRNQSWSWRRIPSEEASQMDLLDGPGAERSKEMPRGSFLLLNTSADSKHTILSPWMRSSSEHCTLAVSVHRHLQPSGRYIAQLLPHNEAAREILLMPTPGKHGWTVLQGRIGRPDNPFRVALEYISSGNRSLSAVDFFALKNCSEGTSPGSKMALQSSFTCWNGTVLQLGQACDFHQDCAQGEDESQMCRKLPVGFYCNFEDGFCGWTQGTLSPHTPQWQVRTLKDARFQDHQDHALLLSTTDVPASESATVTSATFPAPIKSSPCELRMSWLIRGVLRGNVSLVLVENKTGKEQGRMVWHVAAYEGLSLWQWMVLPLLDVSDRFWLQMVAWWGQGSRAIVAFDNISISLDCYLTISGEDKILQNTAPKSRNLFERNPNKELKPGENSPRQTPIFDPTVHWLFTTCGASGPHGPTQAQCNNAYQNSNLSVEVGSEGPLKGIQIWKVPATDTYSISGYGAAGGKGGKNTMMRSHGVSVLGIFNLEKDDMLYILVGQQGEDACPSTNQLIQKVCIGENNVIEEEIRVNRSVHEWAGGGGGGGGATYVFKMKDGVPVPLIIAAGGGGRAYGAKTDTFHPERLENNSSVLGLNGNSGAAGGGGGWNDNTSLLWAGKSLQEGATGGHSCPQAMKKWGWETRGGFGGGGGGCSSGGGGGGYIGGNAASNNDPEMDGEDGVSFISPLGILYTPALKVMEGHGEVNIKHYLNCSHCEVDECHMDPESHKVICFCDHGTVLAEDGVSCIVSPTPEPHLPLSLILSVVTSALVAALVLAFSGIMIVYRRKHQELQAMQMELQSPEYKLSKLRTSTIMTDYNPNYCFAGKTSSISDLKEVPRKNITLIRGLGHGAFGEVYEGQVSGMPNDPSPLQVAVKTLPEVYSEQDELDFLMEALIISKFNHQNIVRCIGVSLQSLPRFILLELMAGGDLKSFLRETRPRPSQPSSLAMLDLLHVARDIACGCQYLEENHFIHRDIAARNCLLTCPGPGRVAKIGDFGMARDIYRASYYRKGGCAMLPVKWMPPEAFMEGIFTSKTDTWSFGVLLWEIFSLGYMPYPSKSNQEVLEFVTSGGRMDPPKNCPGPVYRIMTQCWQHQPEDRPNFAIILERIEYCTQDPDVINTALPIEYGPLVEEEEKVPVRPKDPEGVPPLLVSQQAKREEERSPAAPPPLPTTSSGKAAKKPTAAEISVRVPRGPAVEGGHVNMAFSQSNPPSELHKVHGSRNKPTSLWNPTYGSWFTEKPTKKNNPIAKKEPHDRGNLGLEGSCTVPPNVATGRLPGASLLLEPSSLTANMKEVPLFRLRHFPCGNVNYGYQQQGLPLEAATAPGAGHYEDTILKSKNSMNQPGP
Chain of Sodium-dependent dopamine transporter (Q01959 whole entry, the tested form may be a part): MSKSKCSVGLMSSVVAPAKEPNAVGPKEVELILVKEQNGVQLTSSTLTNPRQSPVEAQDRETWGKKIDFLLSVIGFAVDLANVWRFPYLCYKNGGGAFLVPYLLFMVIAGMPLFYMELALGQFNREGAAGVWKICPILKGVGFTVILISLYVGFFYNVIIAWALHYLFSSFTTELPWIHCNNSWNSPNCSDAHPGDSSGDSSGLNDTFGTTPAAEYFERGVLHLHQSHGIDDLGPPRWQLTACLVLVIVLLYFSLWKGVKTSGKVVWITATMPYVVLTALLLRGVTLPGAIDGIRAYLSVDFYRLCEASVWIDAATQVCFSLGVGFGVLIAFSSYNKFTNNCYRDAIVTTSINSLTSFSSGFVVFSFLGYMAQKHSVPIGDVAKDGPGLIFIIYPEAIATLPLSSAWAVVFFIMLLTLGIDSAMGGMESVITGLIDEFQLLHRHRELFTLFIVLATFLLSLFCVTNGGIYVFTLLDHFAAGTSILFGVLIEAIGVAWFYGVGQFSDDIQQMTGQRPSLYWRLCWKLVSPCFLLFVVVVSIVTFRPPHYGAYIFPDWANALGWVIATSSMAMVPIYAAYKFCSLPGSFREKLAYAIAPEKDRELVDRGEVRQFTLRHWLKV
Chain of Mitogen-activated protein kinase kinase kinase 3 (Homo sapiens) (Q99759 whole entry): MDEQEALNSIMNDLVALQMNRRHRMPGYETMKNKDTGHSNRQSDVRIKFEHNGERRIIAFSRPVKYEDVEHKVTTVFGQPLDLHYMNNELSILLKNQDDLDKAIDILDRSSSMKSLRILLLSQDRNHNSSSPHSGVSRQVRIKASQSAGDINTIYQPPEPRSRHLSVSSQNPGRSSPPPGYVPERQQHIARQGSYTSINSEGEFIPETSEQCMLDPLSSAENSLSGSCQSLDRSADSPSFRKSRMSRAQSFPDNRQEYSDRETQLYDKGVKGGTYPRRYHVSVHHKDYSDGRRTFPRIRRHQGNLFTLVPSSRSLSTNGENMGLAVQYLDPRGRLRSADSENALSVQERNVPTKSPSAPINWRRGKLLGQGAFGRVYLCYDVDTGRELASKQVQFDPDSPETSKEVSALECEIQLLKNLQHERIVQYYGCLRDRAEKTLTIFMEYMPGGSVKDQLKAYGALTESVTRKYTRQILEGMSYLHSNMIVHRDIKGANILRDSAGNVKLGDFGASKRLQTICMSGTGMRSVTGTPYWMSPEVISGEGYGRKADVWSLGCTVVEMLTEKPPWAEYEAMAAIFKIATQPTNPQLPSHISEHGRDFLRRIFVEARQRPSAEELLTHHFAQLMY
Chain of Dual specificity protein kinase CLK4 (Homo sapiens) (Q9HAZ1 whole entry, looked up): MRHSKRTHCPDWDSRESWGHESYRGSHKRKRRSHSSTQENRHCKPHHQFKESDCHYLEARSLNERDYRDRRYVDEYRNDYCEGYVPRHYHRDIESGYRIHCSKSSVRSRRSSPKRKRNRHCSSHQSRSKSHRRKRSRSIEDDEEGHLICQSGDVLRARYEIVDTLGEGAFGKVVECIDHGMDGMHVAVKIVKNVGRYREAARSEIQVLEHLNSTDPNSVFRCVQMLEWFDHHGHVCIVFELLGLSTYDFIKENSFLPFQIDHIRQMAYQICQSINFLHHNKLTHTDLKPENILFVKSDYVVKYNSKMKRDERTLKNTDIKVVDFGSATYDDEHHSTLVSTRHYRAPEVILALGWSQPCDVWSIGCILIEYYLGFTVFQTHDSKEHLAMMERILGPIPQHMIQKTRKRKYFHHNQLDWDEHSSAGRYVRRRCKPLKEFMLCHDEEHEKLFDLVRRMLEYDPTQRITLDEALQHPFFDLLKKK
Chain of Casein kinase I isoform alpha-like (Homo sapiens) (Q8N752 whole entry, canonical isoform): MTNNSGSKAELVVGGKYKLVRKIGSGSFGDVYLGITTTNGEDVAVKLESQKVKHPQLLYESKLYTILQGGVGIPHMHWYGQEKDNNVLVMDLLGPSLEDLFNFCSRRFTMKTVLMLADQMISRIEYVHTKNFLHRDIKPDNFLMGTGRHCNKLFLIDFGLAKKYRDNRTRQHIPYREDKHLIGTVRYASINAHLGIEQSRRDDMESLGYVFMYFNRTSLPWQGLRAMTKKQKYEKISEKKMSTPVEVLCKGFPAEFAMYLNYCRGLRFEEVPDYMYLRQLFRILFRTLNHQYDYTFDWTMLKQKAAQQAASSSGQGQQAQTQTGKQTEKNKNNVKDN

SMILES | residual activity [1] [%] | inhibition [2] [%] | residual activity [3] [%] | Ki (D(1B) dopamine receptor) [nM] | residual activity [4] [%] | residual activity [5] [%] | residual activity [6] [%] | residual activity [7] [%] | residual activity [8] [%] | residual activity [9] [%] | residual activity [10] [%] | residual activity [11] [%] | residual activity [12] [%] | inhibition [13] [%] | residual activity [14] [%] | inhibition [15] [%] | residual activity [16] [%] | residual activity [17] [%] | residual activity [18] [%] | inhibition [19] [%] | further results
Cc1c(C(=O)O)cc(-c2ccc(C3CCNCC3)cc2)c2ccc(-c3ccc(C(F)(F)F)cc3)cc12 [PPTN-NC] | 92 | 31.2 | 100 | 2860 | 100 | 100 | 100 | 100 | 100 | 80 | 100 | 100 | 100 | -4.53 | 100 | 27.8 | 100 | 91 | 100 | 57.4 | residual activity [20]: 100%; residual activity [21]: 100%; residual activity [22]: 100%; residual activity [23]: 100%; residual activity [24]: 100%; residual activity [25]: 98%; inhibition [26]: 7.04%; residual activity [27]: 94%; residual activity [28]: 98%; residual activity [29]: 100%; residual activity [30]: 100%; residual activity [31]: 86%; residual activity [32]: 100%; inhibition [33]: 29.2%; residual activity [34]: 100%; residual activity [35]: 100%; residual activity [36]: 100%; residual activity [37]: 100%; residual activity [38]: 100%
O=C(O)c1cc(-c2ccc(C3CCNCC3)cc2)c2ccc(-c3ccc(C(F)(F)F)cc3)cc2c1 [PPTN] | 100 | 37.7 | 100 | 2820 | 100 | 100 | 100 | 100 | 100 | 80 | 100 | 100 | 100 | 11.2 | 100 | 38.9 | 100 | 85 | 100 | 85.8 | residual activity [20]: 100%; residual activity [21]: 100%; residual activity [22]: 100%; residual activity [23]: 96%; residual activity [24]: 100%; residual activity [25]: 87%; inhibition [26]: 0.03%; residual activity [27]: 100%; residual activity [28]: 83%; residual activity [29]: 100%; residual activity [30]: 100%; residual activity [31]: 85%; residual activity [32]: 100%; inhibition [33]: 24.7%; residual activity [34]: 100%; residual activity [35]: 100%; residual activity [36]: 100%; residual activity [37]: 100%; residual activity [38]: 100%
